A word on the EC50: it is the concentration at which the effect is half-maximal. Read a high EC50 as a less potent agent. As a reminder, the IC50 is the point on the concentration scale where inhibition reaches its midpoint.

In ChEMBL document CHEMBL5226317, “Camptothecin's journey from discovery to WHO Essential Medicine: Fifty years of promise” (Eur J Med Chem, 2021) one finds EC50 and IC50 data, which are given here for 17 compounds.

Common to all, as to assay type: functional, cell-based
One assay relates to NSCLC. Description: Cytotoxicity against human NSCLC cells.
Assay [1] deals with A549. Description: Cytotoxicity against human A549 cells incubated for 48 hrs by SpectraMax M5 microplate reader analysis. The note with it: A549, 48 h.
Assay [2] concerns A549. Description: Cytotoxicity against human A549 cells.
In assay [3] the test system is HT-29. Description: Cytotoxicity against human HT-29 cells.
Another assay concerns MSTO-211H. Description: Antiproliferative activity against human MSTO-211H cells incubated for 72 hrs.
In another assay the test system is A-431. Description: Antiproliferative activity against human A-431 cells incubated for 72 hrs. Particulars: A-431, 72 h.
The test system of a further assay is NCI-H460. Description: Antiproliferative activity against human NCI-H460 cells incubated for 72 hrs. The note with it: NCI-H460, 72 h.
Another assay has as its system HeLa. Description: Antiproliferative activity against human HeLa cells incubated for 72 hrs.
For another assay, the system named is H322. Description: Anticancer activity against human H322 cells incubated for 48 hrs by MTT assay. The note with it: NCI-H322, 48 h. (Formazan colour is commonly taken as a measure of viable cells.)
The next assay relates to Jurkat. Description: Anticancer activity against human Jurkat cells incubated for 48 hrs by MTT assay.
For another assay, the system named is HL-60. Description: Anticancer activity against human HL-60 cells incubated for 48 hrs by MTT assay. Particulars: HL-60, 48 h.
In assay [4] the test system is A549. Description: Anticancer activity against human A549 cells incubated for 48 hrs by MTT assay. The note with it: A549, 48 h.
In assay [5] the test system is HepG2. Description: Anticancer activity against human HepG2 cells incubated for 48 hrs by MTT assay. Particulars: HepG2, 48 h.
A further assay concerns DU-145. Description: Anticancer activity against human DU-145 cells incubated for 48 hrs by MTT assay. Particulars: DU-145, 48 h.
The test system of a further assay is HCT-116. Description: Anticancer activity against human HCT-116 cells incubated for 48 hrs by MTT assay. The note with it: HCT-116, 48 h.
For assay [6], the system named is HT-29. Description: Anticancer activity against human HT-29 cells incubated for 48 hrs by MTT assay. The note with it: HT-29, 48 h.
A further assay concerns SGC-7901. Description: Antiproliferative activity against human SGC-7901 cells incubated for 48 hrs by CCK-8 assay. Particulars: SGC-7901, 48 h.
The test system of assay [7] is HCT-8. Description: Antiproliferative activity against human HCT-8 cells incubated for 48 hrs by CCK-8 assay. The note with it: HCT-8, 48 h.
In assay [8] the test system is KB. Description: Antiproliferative activity against human KB cells incubated for 48 hrs by CCK-8 assay.
Assay [9] concerns HepG2. Description: Antiproliferative activity against human HepG2 cells incubated for 48 hrs by CCK-8 assay. Particulars: HepG2, 48 h.
Assay [10] deals with HCT-8. Description: Cytotoxicity against human HCT-8 cells.
Assay [11] has as its system KB. Description: Antiproliferative activity against human KB cells measured after 72 hrs by colorimetric assay.
Assay [12] has as its system A549. Description: Antiproliferative activity against human A549 cells measured after 72 hrs by colorimetric assay. Particulars: A549, 72 h.
The nature of assay [13]: Antiproliferative activity against human KB-VIN cells measured after 72 hrs by colorimetric assay. The note with it: KBVIN.
In a further assay the test system is SBC-3. Description: Cytotoxicity against human SBC-3 cells incubated for 48 hrs by MTT assay. Particulars: SBC-3, 48 h.
Assay [14] in a line: Cytotoxicity against human NCI-H196 cells incubated for 48 hrs by MTT assay. The note with it: NCI-H196, 48 h.
The test system of assay [15] is A549. Description: Cytotoxicity against human A549 cells incubated for 48 hrs by MTT assay. The note with it: A549, 48 h.
The subject of the next assay is SBC-5. Description: Cytotoxicity against human SBC-5 cells incubated for 48 hrs by MTT assay. The note with it: SBC-5, 48 h.
For another assay, the system named is NCI-H520. Description: Cytotoxicity against human NCI-H520 cells incubated for 48 hrs by MTT assay. Particulars: NCI-H520, 48 h.
A further assay relates to NCI-H1299. Description: Cytotoxicity against human NCI-H1299 cells incubated for 48 hrs by MTT assay. The note with it: NCI-H1299, 48 h.
A short description of assay [16]: Anticancer activity against human SPCA1 cells incubated for 72 hrs by MTT assay. The note with it: SPCA1, 72 h.
A further assay relates to K562. Description: Anticancer activity against human K562 cells incubated for 72 hrs by MTT assay. The note with it: K562, 72 h.
A further assay relates to SK-OV-3. Description: Anticancer activity against human SK-OV-3 cells incubated for 72 hrs by MTT assay. The note with it: SK-OV-3, 72 h.
Another assay deals with SW 1116. Description: Anticancer activity against human SW 1116 cells incubated for 72 hrs by MTT assay. The note with it: SW 1116, 72 h.
Another assay relates to U-251. Description: Anticancer activity against human U-251 cells incubated for 72 hrs by MTT assay. The note with it: U-251, 72 h.
The subject of another assay is MCF7. Description: Antiproliferative activity against human MCF7 cells.
The nature of assay [17]: Antiproliferative activity against human KB-VIN cells. Particulars: KBVIN.
The next assay concerns MDA-MB-231. Description: Antiproliferative activity against human MDA-MB-231 cells.
Assay [18] relates to KB. Description: Antiproliferative activity against human KB cells.
The nature of assay [19]: Antiproliferative activity against human KB-VIN cells assessed as reduction in cell viability. Particulars: KBVIN.
Assay [20] concerns A549. Description: Antiproliferative activity against human A549 cells.

Each structure is given as a SMILES string. Where a name gives a salt, the structure may show the parent alone.

In the assay with NSCLC, `CC[C@@]1(O)C(=O)OCc2c1cc1n(c2=O)Cc2cc3cc4c(cc3nc2-1)OCO4` showed an EC50 of 0.001 µM. In the assay on A549 [1], this compound displayed an IC50 of 0.083 µM.

Regarding `CC[C@@]1(OC(=O)CCC(=O)O[C@@H]2O[C@@H](C)[C@H](OC(C)=O)[C@@H](OC(C)=O)[C@H]2OC(C)=O)C(=O)OCc2c1cc1n(c2=O)Cc2cc3cc4c(cc3nc2-1)OCO4`, the IC50 in the assay on A549 [1] was determined as 0.083 µM.

As for `CCc1c2c(nc3ccc(OC)cc13)-c1cc([C@@](O)(CC)C(=O)NCCCN3CCOCC3)c(CO)c(=O)n1C2`, the half-inhibitory concentration (IC50) in the assay on A549 [2] and in the assay on HT-29 [3] was 0.02 µM in each case.

As to `CC[C@@]1(O)C(=O)OCc2c1cc1n(c2=O)Cc2c-1nc1ccccc1c2CSSCc1c2c(nc3ccccc13)-c1cc3c(c(=O)n1C2)COC(=O)[C@]3(O)CC`, the half-maximal inhibitory concentration (IC50) in the assay with MSTO-211H (Homo sapiens, MSTO-211H, 72 h) was 0.0022 µM; with MSTO-211H (msto-211h) it was 0.002 µM; in the assay with A-431 it was 0.021 µM; in the assay on NCI-H460, 0.006 µM; in the assay on HeLa, 0.009 µM.

For `CC[C@@]1(O)C(=O)OCc2c1cc1n(c2=O)Cc2cc3cc(OCC(=O)OC(C)(C)C)ccc3nc2-1`, the IC50 came to 0.46 µM in the assay with H322; 0.04 µM with Jurkat; 0.04 µM with HL-60; 0.06 µM in the assay with A549 [4]; 0.16 µM in the assay on HepG2 [5]; 0.06 µM with DU-145. Besides, the half-inhibitory concentration (IC50) in the assay with HCT-116 and in the assay with HT-29 [6] was 0.07 µM in each case.

As for `CC[C@@]1(O)C(=O)OCc2c1cc1n(c2=O)Cc2cc3c(/C=C(\C)C(=O)OC)c(O)ccc3nc2-1`, the IC50 in the assay with SGC-7901 is 0.262 µM; with HCT-8 [7] it was 0.03 µM; with KB [8], 0.73 µM; in the assay with HepG2 [9] it was 0.176 µM; in the assay on HCT-8 [10], 0.03 µM.

Turning to `CC[C@@]1(O)C(=O)OCc2c1cc1n(c2=O)Cc2c-1nc1ccccc1c2CS`, the IC50 in the assay with MSTO-211H (Homo sapiens, MSTO-211H, 72 h) was determined as 0.00185 µM; in the assay with MSTO-211H (msto-211h) it was 0.0018 µM; in the assay with A-431 it was 0.11 µM; with NCI-H460 it was 0.027 µM; with HeLa it was 0.008 µM.

With `CCc1c2c(nc3ccccc13)-c1cc3c(c(=O)n1C2)COC(=O)[C@]3(CC)OC(=O)CN/C(Cc1ccc(OC)cc1)=N\S(=O)(=O)c1ccc(C)cc1`, the IC50 in the assay with KB [11] was determined as 0.142 µM; in the assay with A549 [12] it was 0.0314 µM; in [13], 0.026 µM.

In the case of `CC[C@@](O)(C(=O)NCCN1CCOCC1)c1cc2n(c(=O)c1CO)Cc1c-2nc2ccccc2c1-c1ccccc1`, the IC50 with A549 [2] and in the assay with HT-29 [3] was 0.1 µM throughout.

For `CC[C@]1(OC(=O)CN/C(Cc2ccc(OC)cc2)=N\S(=O)(=O)c2ccc(C)cc2)C(=O)OCc2c1cc1n(c2=O)Cc2cc3ccccc3nc2-1`, the results for the half-maximal inhibitory concentration (IC50) (with KB [11]; with A549 [12]; in assay [13]) were 0.142 µM, 0.0314 µM and 0.026 µM, respectively.

Take `CCc1c2c(nc3ccc(OCc4cn(C(COC(CO)CO)COC(CO)CO)nn4)cc13)-c1cc3c(c(=O)n1C2)COC(=O)[C@@]3(O)CC`: the IC50 in the assay with SBC-3 is 1.7 µM; in assay [14] it was 510 µM; with A549 [15], 23 µM; in the assay with SBC-5 it was 4.8 µM; in the assay on NCI-H520, 1.5 µM; in the assay with NCI-H1299, 1000 µM.

`CCc1c2c(nc3ccc(OC(=O)NC(CC(C)C)C(=O)O)cc13)-c1cc3c(c(=O)n1C2)COC(=O)[C@]3(O)CC` (stereo partly drawn): the IC50 amounted to 0.385 µM in assay [16]; 1.62 µM in the assay with K562; 0.001 µM in the assay on SK-OV-3; 0.091 µM in the assay on SW 1116; 1.7 µM with U-251.

On to `CC[C@@](O)(C(=O)NCCCN1CCOCC1)c1cc2n(c(=O)c1CO)Cc1c-2nc2ccccc2c1-c1ccccc1`, for which the IC50 in the assay with A549 [2] and in the assay with HT-29 [3] was 0.01 µM in each case.

As for `CC[C@@]1(O)C(=O)OCc2c1cc1n(c2=O)Cc2c-1nc1ccccc1c2CN1CCN(C(=S)Nc2cccc3ccccc23)CC1`, the IC50 in the assay with MCF7 came to 0.789 µM; in [17], 0.275 µM; with MDA-MB-231, 0.588 µM; in the assay on KB [18], 0.089 µM; in assay [19], 0.275 µM; in the assay on A549 [20], 0.059 µM.

The compound `CC[C@@]1(O)C(=O)OCc2c1cc1n(c2=O)Cc2cc3ccccc3nc2-1` [CAMPTOTHECIN] yielded an IC50 with Jurkat of 0.1 µM.

On to `CCc1c2c(nc3ccc(OC(=O)N4CCC(N5CCCCC5)CC4)cc13)-c1cc3c(c(=O)n1C2)COC(=O)[C@]3(O)CC` [IRINOTECAN], for which, in the assay on A549 [1], it took 9.14 µM to reach half-maximal inhibition (IC50).

`CC[C@@]1(O)C(=O)OCc2c1cc1n(c2=O)Cc2cc3c(CN(C)C)c(O)ccc3nc2-1` [TOPOTECAN HYDROCHLORIDE]: it took 0.511 µM to reach half-maximal inhibition in assay [17] (IC50).
